Experimental data published in patent US9521846B2, “Template-fixed peptidomimetics with antimicrobial activity” (priority 2006, dated 2016).
≈ marks a conversion by molar mass, not a printed value. Non-standard residues stand in square brackets, D forms with d. Residues, ends and D or L forms follow the SMILES beside them. Cha = N[C@@H](CC1CCCCC1)C(=O)O; Cit = NC(=O)NCCC[C@H](N)C(=O)O; Dab = NCC[C@H](N)C(=O)O

Tests used:
[1] = system: Pseudomonas aeruginosa P1021903; type: cell-based; conditions: P1021903
Method: (§1) The selective antimicrobial activities of the peptides were determined in 96-well plates (Nunclon polystyrene) by the standard NCCLS broth microdilution method (see ref 1, below) with slight modifications. Innocula of the microorganisms were diluted into Mueller-Hinton (MH) broth+0.02% BSA and compared with a 0.5 Mcfarland standard to give appr. 10^6 colony forming units (CFU)/ml. Aliquots (50 μl) of inoculate were added to 50 μl of MH broth+0.02% BSA containing the peptide in serial two-fold dilutions. The following microorganisms were used to determine antibiotic selectivity of the peptides: Escherichia coli (ATCC 25922), Pseudomonas aeruginosa (P. aeruginosa ATCC 27853, P8191900, P1021903, P1021913, IMP 1 Livermore 3140).

[2] = system: Pseudomonas aeruginosa P8191900; type: cell-based; conditions: P8191900
Method: as §1

[3] = system: Pseudomonas aeruginosa IMP 1 Livermore 3140; type: cell-based; conditions: IMP 1 Livermore 3140
Method: as §1

[4] = system: Pseudomonas aeruginosa P1021913; type: cell-based; conditions: P1021913
Method: as §1

P. aeruginosa ATCC 27853 = type: cell-based, Pseudomonas aeruginosa; conditions: ATCC 27853
Method: as §1

[5] = system: human red blood cells (hRBC); experiment: Hemolysis; type: cell-based; conditions: 100
Method: Hemolysis of red blood cells is often employed for assessment of toxicity of related compounds such as protegrin or tachyplesin. Values are given as %-lysis of red blood cells observed at a concentration of 100 μg/ml. Typical values determined for cationic peptides such as protegrin and tachyplesin range between 30-40% with average MIC-values of 1-5 μg/ml over a wide range of pathogens.
The peptides were tested for their hemolytic activity against human red blood cells (hRBC). Fresh hRBC were washed three times with phosphate buffered saline (PBS) by centrifugation for 10 min at 2000×g. Peptides at a concentration of 100 μM were incubated with 20% v/v hRBC for 1 hour at 37° C. The final erythrocyte concentration was approximately 0.9×10^9 cells per ml. A value of 0% and, respectively, 100% cell lysis was determined by incubation of the hRBC in the presence of PBS alone and, respectively, 0.1% Triton X-100 in H2O. The samples were centrifuged, the supernatant was 20-fold diluted in PBS buffer and the optical density (OD) of the sample at […] was measured. The 100% lysis value (OD540H20) gave an OD540 of approximately 1.3-1.8. Percent hemolysis was calculated as follows: (OD540peptide/OD540H20)×100%.

HELA cells (Acc57) = experiment: Cytotoxicity assay, MTT reduction (LC 50, GI 50); type: cell-based
Method: The cytotoxicity of the peptides to HELA cells (Acc57) and COS-7 cells (CRL-1651) was determined using the MIT reduction assay [see ref. 2 and 3, below]. Briefly the method was as follows: HELA cells and COS-7 cells were seeded at 7.0×10^3 and, respectively, 4.5×10^3 cells per well and grown in 96-well […] plates for 24 hours at 37° C. at 5% CO2. At this point, time zero (Tz) was determined by MTT reduction (see below). The supernatant of the remaining wells was discarded, and fresh medium and the peptides in serial dilutions of 12.5, 25 and 50 μM were dispensed into the wells. Each peptide concentration was assayed in triplicate. Incubation of the cells was continued for 48 hours at 37° C. at 5% CO2. Wells were then washed once with phosphate buffered saline (PBS) and subsequently 100 μl MIT reagent (0.5 mg/ml in medium RPMI1640 and, respectively, DMEM) were added to the wells. This was incubated at 37° C. for 2 hours and subsequently the medium was aspirated and 100 μl isopropanol were added to each well. The absorbance at 595 nm of the solubilized product was measured (OD595peptide). For each concentration averages were calculated from triplicates. The percentage of growth was calculated as follows: (OD595peptide-OD595Tz-OD595Empty well)/(OD595Tz-OD595Empty well)×100% and was plotted for each peptide concentration.
The LC 50 values (Lethal Concentration, defined as the concentration that kills 50% of the cells) were determined for each peptide by using the trend line function of EXCEL (Microsoft Office 2000) for the concentrations (50, 25, 12.5 and 0 μM), the corresponding growth percentages and the value −50, (=TREND(C50:C0,%50:%0,−50)). The GI 50 (Growth Inhibition) concentrations were calculated for each peptide by using a trend line function for the concentrations (50, 25, 12.5 and 0 […]), the corresponding percentages and the value 50, (=TREND (C50:C0,%50:%0,50).

Row | Structure (SMILES) | MIC P. aeruginosa P1021903 [1] | MIC P. aeruginosa P8191900 [2] | MIC P. aeruginosa IMP1 Livermore 3140 [3] | MIC P. aeruginosa P1021913 [4] | Average MIC (P. aeruginosa) | MIC P. aeruginosa ATCC 27853 (P. aeruginosa ATCC 27853) | Hemolysis at 100 μg/ml [5] | Cytotoxicity GI50 Hela cells (HELA cells (Acc57))
1 | CC[C@H](C)[C@@H]1NC(=O)[C@H](Cc2c[nH]c3ccccc23)NC(=O)[C@H]([C@@H](C)O)NC(=O)[C@@H]2CCCN2C(=O)[C@H]2CCCN2C(=O)[C@H](CCN)NC(=O)[C@@H]2CCCN2C(=O)[C@H](CCN)NC(=O)[C@H](CCN)NC(=O)[C@H](Cc2c[nH]c3ccccc23)NC(=O)[C@H](CCN)NC(=O)[C@H](CCN)NC(=O)[C@H](CCCCN)NC(=O)[C@H](CCN)NC1=O [Example 17] (cyclo(TWI[Dab]K[Dab][Dab]W[Dab][Dab]P[Dab][dP]P)) | 2.00 µg/mL (≈ 1.24 µM) | 1.50 µg/mL (≈ 0.933 µM) | >2 µg/mL | 1.25 µg/mL (≈ 0.778 µM) | >1 µg/mL | 0.75 µg/mL (≈ 0.467 µM) | 0.5% | 29 µM
2 | CC[C@H](C)[C@@H]1NC(=O)[C@H](Cc2c[nH]c3ccccc23)NC(=O)[C@H](CCCNC(N)=O)NC(=O)[C@@H]2CCCN2C(=O)[C@H]2CCCN2C(=O)[C@H](CCN)NC(=O)[C@H](C)NC(=O)[C@H](CCN)NC(=O)[C@H](CCN)NC(=O)[C@H](Cc2c[nH]c3ccccc23)NC(=O)[C@H](CCN)NC(=O)[C@H](CCN)NC(=O)[C@H](CCCCN)NC(=O)[C@H](CCN)NC1=O [Example 18] (cyclo([Cit]WI[Dab]K[Dab][Dab]W[Dab][Dab]A[Dab][dP]P)) | 0.10 µg/mL (≈ 0.0611 µM) | 0.10 µg/mL (≈ 0.0611 µM) | 0.30 µg/mL (≈ 0.183 µM) | 0.81 µg/mL (≈ 0.495 µM) | 0.28 µg/mL | 0.06 µg/mL (≈ 0.0367 µM) | 0.4% | 50 µM
3 | CC[C@H](C)[C@@H]1NC(=O)[C@H](Cc2ccc(O)cc2)NC(=O)[C@H]([C@@H](C)O)NC(=O)[C@@H]2CCCN2C(=O)[C@H]2CCCN2C(=O)[C@H](CCN)NC(=O)[C@H](C)NC(=O)[C@H](CCN)NC(=O)[C@H](CCN)NC(=O)[C@H](Cc2c[nH]c3ccccc23)NC(=O)[C@H](CCN)NC(=O)[C@H](CCN)NC(=O)[C@H](CCCCN)NC(=O)[C@H](CCN)NC1=O [Example 19] (cyclo(TYI[Dab]K[Dab][Dab]W[Dab][Dab]A[Dab][dP]P)) | 0.03 µg/mL (≈ 0.0193 µM) | 0.05 µg/mL (≈ 0.0321 µM) | 0.10 µg/mL (≈ 0.0642 µM) | 0.10 µg/mL (≈ 0.0642 µM) | 0.06 µg/mL | 0.03 µg/mL (≈ 0.0193 µM) | 0.2% | 50 µM
4 | CC[C@H](C)[C@@H]1NC(=O)[C@H](Cc2c[nH]c3ccccc23)NC(=O)[C@H]([C@@H](C)O)NC(=O)[C@@H]2CCCN2C(=O)[C@H]2CCCN2C(=O)[C@H](CCN)NC(=O)[C@H](C)NC(=O)[C@H](CCN)NC(=O)[C@H](CCN)NC(=O)[C@H](Cc2ccc(O)cc2)NC(=O)[C@H](CCN)NC(=O)[C@H](CCN)NC(=O)[C@H](CCCCN)NC(=O)[C@H](CCN)NC1=O [Example 20] (cyclo(TWI[Dab]K[Dab][Dab]Y[Dab][Dab]A[Dab][dP]P)) | 0.21 µg/mL (≈ 0.135 µM) | 0.40 µg/mL (≈ 0.257 µM) | 1.25 µg/mL (≈ 0.802 µM) | 0.31 µg/mL (≈ 0.199 µM) | 0.48 µg/mL | 0.21 µg/mL (≈ 0.135 µM) | 0.2% | 50 µM

Further lines, with some results ahead:

Row | MIC P. aeruginosa P1021903 [1] | MIC P. aeruginosa P8191900 [2] | MIC P. aeruginosa IMP1 Livermore 3140 [3] | MIC P. aeruginosa P1021913 [4] | Average MIC (P. aeruginosa) | MIC P. aeruginosa ATCC 27853 (P. aeruginosa ATCC 27853) | Structure (SMILES) | Hemolysis at 100 μg/ml [5] | Cytotoxicity GI50 Hela cells (HELA cells (Acc57))
5 | 2.00 µg/mL (≈ 1.2 µM) | 1.00 µg/mL (≈ 0.601 µM) | >2 µg/mL | 0.75 µg/mL (≈ 0.451 µM) | >1 µg/mL | 0.40 µg/mL (≈ 0.241 µM) | CC[C@H](C)[C@@H]1NC(=O)[C@H](Cc2c[nH]c3ccccc23)NC(=O)[C@H]([C@@H](C)O)NC(=O)[C@@H]2CCCN2C(=O)[C@H]2CCCN2C(=O)[C@H](CCN)NC(=O)[C@H](CC2CCCCC2)NC(=O)[C@H](CCN)NC(=O)[C@H](CCN)NC(=O)[C@H](Cc2c[nH]c3ccccc23)NC(=O)[C@H](CCN)NC(=O)[C@H](CCN)NC(=O)[C@H](CCCCN)NC(=O)[C@H](CCN)NC1=O [Example 12] (cyclo(TWI[Dab]K[Dab][Dab]W[Dab][Dab][Cha][Dab][dP]P)) | 0.7% | 50 µM
6 | 0.40 µg/mL (≈ 0.244 µM) | 0.30 µg/mL (≈ 0.183 µM) | 0.75 µg/mL (≈ 0.458 µM) | 0.31 µg/mL (≈ 0.189 µM) | 0.40 µg/mL | 0.21 µg/mL (≈ 0.128 µM) | CC[C@H](C)[C@@H]1NC(=O)[C@H](Cc2c[nH]c3ccccc23)NC(=O)[C@H]([C@@H](C)O)NC(=O)[C@@H]2CCCN2C(=O)[C@H]2CCCN2C(=O)[C@H](CCN)NC(=O)[C@H](CCC(N)=O)NC(=O)[C@H](CCN)NC(=O)[C@H](CCN)NC(=O)[C@H](Cc2c[nH]c3ccccc23)NC(=O)[C@H](CCN)NC(=O)[C@H](CCN)NC(=O)[C@H](CCCCN)NC(=O)[C@H](CCN)NC1=O [Example 13] (cyclo(TWI[Dab]K[Dab][Dab]W[Dab][Dab]Q[Dab][dP]P)) | 0.4% | 50 µM
7 | 0.31 µg/mL (≈ 0.191 µM) | 0.40 µg/mL (≈ 0.246 µM) | >2 µg/mL | 0.65 µg/mL (≈ 0.4 µM) | >1 µg/mL | 0.21 µg/mL (≈ 0.129 µM) | CC[C@H](C)[C@@H]1NC(=O)[C@H](Cc2c[nH]c3ccccc23)NC(=O)[C@H]([C@@H](C)O)NC(=O)[C@@H]2CCCN2C(=O)[C@H]2CCCN2C(=O)[C@H](CCN)NC(=O)[C@H](CC(=O)O)NC(=O)[C@H](CCN)NC(=O)[C@H](CCN)NC(=O)[C@H](Cc2c[nH]c3ccccc23)NC(=O)[C@H](CCN)NC(=O)[C@H](CCN)NC(=O)[C@H](CCCCN)NC(=O)[C@H](CCN)NC1=O [Example 14] (cyclo(TWI[Dab]K[Dab][Dab]W[Dab][Dab]D[Dab][dP]P)) | 0.3% | 12 µM
8 | 1.25 µg/mL (≈ 0.763 µM) | 2.50 µg/mL (≈ 1.53 µM) | >2 µg/mL | 2.25 µg/mL (≈ 1.37 µM) | >1 µg/mL | 0.50 µg/mL (≈ 0.305 µM) | CC[C@H](C)[C@@H]1NC(=O)[C@H](Cc2c[nH]c3ccccc23)NC(=O)[C@H]([C@@H](C)O)NC(=O)[C@@H]2CCCN2C(=O)[C@H]2CCCN2C(=O)[C@H](CCN)NC(=O)[C@H](CCC(=O)O)NC(=O)[C@H](CCN)NC(=O)[C@H](CCN)NC(=O)[C@H](Cc2c[nH]c3ccccc23)NC(=O)[C@H](CCN)NC(=O)[C@H](CCN)NC(=O)[C@H](CCCCN)NC(=O)[C@H](CCN)NC1=O [Example 15] (cyclo(TWI[Dab]K[Dab][Dab]W[Dab][Dab]E[Dab][dP]P)) | 0.3% | 50 µM
